Experimental data taken from patent US20090149420A1, “NOVEL COMPOSITIONS AND USE THEREOF FOR THE TREATMENT, CO-TREATMENT OR PREVENTION OF INFLAMMATORY DISORDERS” (priority 2007, published 2009).

What was measured:
Format in all cases: cell-based
TIMP-1 = TIMP-1 gene expression (mRNA, RT-PCR) in normal human chondrocytes; details: 500 mg/L; unstim., 4 d; % of unstimulated cells set at 100%
Method: (§1) The effect of a MA/HO (1:3 w/w) mixture in combination with chondroitin was tested on the expression of human aggrecan, collage I, collagen II, or chondrocyte transcription factors (SOX-6, -9) in vitro in normal human chondrocytes (derived from knee) (CC-2550; Cambrex, respectively). A control experiment without the compounds was done concomitantly to compare the expression of these genes (percentage expression of gene in controls was set to 100%). […] The level of mRNA was determined by RT-PCR (Richard et al. Mol. Nutr. Food Res. 49, 431-442, 2005) and expressed relative to the level observed in cells cultured without the substances. The given values indicate the level of gene expression (in % of unstimulated cells [set at 100%] for anabolic and anti-catabolic genes; in % of IL1β-treated cells [set at 100%], for catabolic genes).

ADAMTS-5 = ADAMTS-5 gene expression (mRNA, RT-PCR) in normal human chondrocytes; details: 500 mg/L; stim, 4 hrs; % of IL1β-treated cells set at 100%
Method: (§2) The effect of a MA/HO (1:3 w/w) mixture in combination with chondroitin was tested on the expression of human aggrecan, collage I, collagen II, or chondrocyte transcription factors (SOX-6, -9) in vitro in normal human chondrocytes (derived from knee) (CC-2550; Cambrex, respectively). A control experiment without the compounds was done concomitantly to compare the expression of these genes (percentage expression of gene in controls was set to 100%). Normal human chondrocytes were cultured for 4 hours with MA/HO (1:3 w/w) (at 12.5 μmol/L), chondroitin (at 500 mg/L) as well as with both. The level of mRNA was determined by RT-PCR (Richard et al. Mol. Nutr. Food Res. 49, 431-442, 2005) and expressed relative to the level observed in cells cultured without the substances. The given values indicate the level of gene expression (in % of unstimulated cells [set at 100%] for anabolic and anti-catabolic genes; in % of IL1β-treated cells [set at 100%], for catabolic genes).

[1] = tested on: murine macrophage cell line, RAW264.7; assay: Inhibition of nitric oxide synthesis in LPS-stimulated RAW264.7 macrophages (Griess reaction); details: single substance
Method: The anti-inflammatory effect of a mixture of MA/HO (1:3 w/w) in combination with chondroitin sulfate was determined in cellular assays by measuring the inhibition of the synthesis of nitric oxide. Nitric oxide (NO) is a hallmark of inflammation in various chronic inflammatory diseases including various forms of arthritis, gastro-intestinal diseases and metabolic syndrome X.
The effects on the inflammatory response were tested in cellular assays using a murine macrophage cell line, RAW264.7. The cells were purchased from ATCC (Manassas, Va., USA) and cultured in DMEM containing streptomycin/penicillin, non-essential amino acids and 10% fetal calf serum (FCS). In order to test a large range of concentration of a mixture of MA and HO (1:3) as well as mixtures thereof, cells (˜50,000/well) were seeded into flat-bottomed microtiter plates and cultured for one day. […] Concentrations of nitrite which was rapidly formed from nitric oxide released by cells were determined by the Griess reaction using sodium nitrite as standard. Briefly, 50 μl of supernatant was mixed with Griess reagent 1 (25 μL) and Griess reagent 2 (25 μL), centrifuged and the optical density at 540 nm determined. […] IC50 values for LPS-stimulated cells were calculated using a […] least-square fitting equation [y=A+((B−A)/(1+((C−x)̂D))] for best-fit curves (Excel fit software program). […]

SOX-9 = SOX-9 gene expression (mRNA, RT-PCR) in normal human chondrocytes; details: 500 mg/L; % of unstimulated cells set at 100%
Method: as §2

Aggrecan = Aggrecan gene expression (mRNA, RT-PCR) in normal human chondrocytes; details: 500 mg/L; stim., 4 hrs; control set at 100%
Method: as §2

MMP-2 = MMP-2 gene expression (mRNA, RT-PCR) in normal human chondrocytes; details: 500 mg/L; 4 d; % of IL1β-treated cells set at 100%
Method: as §1

## chondroitin sulfate
TIMP-1
  TIMP-1 gene expression level: 106%
ADAMTS-5
  ADAMTS-5 gene expression level: 107%
[1]; RAW264.7, LPS 1 μg/ml, 24 hours
  IC50 Nitric Oxide: >50 µg/mL
[1]; RAW264.7, LPS-stimulated
  anti-inflammatory activity (inhibition of nitric oxide), in words: marginal anti-inflammatory
SOX-9
  SOX-9 gene expression level: 147%
Aggrecan
  Aggrecan gene expression level: 62%
MMP-2
  MMP-2 gene expression level: 93%
